{"source": "paper PMC5926424", "about": "(Japanese Journal of Cancer Research : Gann, 2000)", "key": {"T.Tn cells": {"test_system": "T.Tn cells", "type": "cell-based", "details": "for ATX-S10(Na) uptake: 3 h"}, "HDL": {"test_system": "HDL", "details": "cited from earlier work"}, "LDL": {"test_system": "LDL", "details": "cited from earlier work"}, "albumin": {"test_system": "albumin", "details": "cited from earlier work"}, "[1]": {"details": "T.Tn cells, 50 μg/ml ATX-S10(Na), 10% FCS, 37C, Fig. 4"}}, "note": "Like-named read-outs stand apart in the source and are kept apart here."}
{"compound": "CC[C@@]1([C@@H]2O[C@@H]([C@H]3O[C@@](O)(CO)[C@H](C)C[C@@H]3C)C[C@@H]2C)CC[C@H]([C@]2(C)CC[C@]3(C[C@H](O)[C@@H](C)[C@@H]([C@@H](C)[C@@H](OC)[C@H](C)C(=O)O)O3)O2)O1", "note": "[monensin]", "values": [{"measurement": "Effect of endocytosis inhibitor on cellular uptake of ATX-S10(Na)", "setting": "T.Tn cells; [1]", "result": "partially but significantly inhibited"}]}
{"compound": "CCN(CC)CCCC(C)Nc1ccnc2cc(Cl)ccc12", "note": "(stereo not shown) [chloroquine]", "values": [{"measurement": "Effect of endocytosis inhibitor on cellular uptake of ATX-S10(Na)", "setting": "T.Tn cells", "result": "partially but significantly inhibited"}]}
{"compound": "CCCN(CCC)S(=O)(=O)c1ccc(C(=O)O)cc1", "note": "[Probenecid]", "values": [{"measurement": "ATX-S10(Na) uptake", "setting": "T.Tn cells; 30 µM", "result": "112.3 % of control"}, {"measurement": "ATX-S10(Na) uptake", "setting": "T.Tn cells; 100 µM", "result": "105.5 % of control"}, {"measurement": "ATX-S10(Na) uptake", "setting": "T.Tn cells; 300 µM", "result": "113.1 % of control"}, {"measurement": "ATX-S10(Na) uptake", "setting": "T.Tn cells; 1000 µM", "result": "115.7 % of control"}]}
{"compound": "O=CC(=O)c1ccccc1", "note": "[phenylglyoxal]", "values": [{"measurement": "Effect of endocytosis inhibitor on cellular uptake of ATX-S10(Na)", "setting": "T.Tn cells; [1]", "result": "partially but significantly inhibited"}]}
{"compound": "C=Cc1c(C)c2cc3nc(c(CC(=O)N[C@@H](CC(=O)O)C(=O)O)c4[nH]c(cc5nc(cc1[nH]2)C(C)=C5CC)c(C)c4C(=O)O)[C@@H](CCC(=O)O)[C@@H]3C", "note": "[NPe6, N-aspartyl chlorin-e6]", "values": [{"measurement": "Fraction bound to HDL", "setting": "HDL", "result": 19, "unit": "%"}, {"measurement": "Fraction bound to LDL", "setting": "LDL", "result": 1, "unit": "%"}, {"measurement": "Fraction bound to albumin", "setting": "albumin", "result": 80, "unit": "%"}]}
